Laboratory results taken from ChEMBL document CHEMBL1201862, “PubChem BioAssay data set” (2004).
Active and inactive are the calls of the source.

Assays:
[1] = target: Eukaryotic translation initiation factor 4H (Homo sapiens, UniProt Q15056); assay: inhibitors of translation initiation factor eIF4H – SAR follow-up (AID 435011); type: functional
[2] = target: Polyadenylate-binding protein 1 (Homo sapiens, UniProt P11940); assay: PABP inhibition in translation initiation, SAR follow-up (AID 435018); type: functional
[3] = target: T1, Kappa-type opioid receptor (Homo sapiens, UniProt P41145); type: functional
[4] = target: T1, Kappa-type opioid receptor; type: functional; remark: listed apart in the source
Mu-type opioid receptor [5] = target: T2, Mu-type opioid receptor (Homo sapiens, UniProt P35372); assay: mu opioid receptor activators, image-based, SAR follow-up (AID 2352); type: functional
[6] = target: T3, Delta-type opioid receptor (Homo sapiens, UniProt P41143); assay: DOR agonists, SAR follow-up, image-based (AID 2370); type: functional
[7] = target: T1, Kappa-type opioid receptor; assay: kappa opioid receptor blockers, image-based, SAR follow-up (AID 2348); type: functional
Mu-type opioid receptor [8] = target: T2, Mu-type opioid receptor; assay: mu opioid receptor blockers – image-based, SAR follow-up (AID 2420); type: functional;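 further: compounds added before stimulation of receptor with agonist DAMGO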
[9] = target: T3, Delta-type opioid receptor; assay: delta opioid receptor blockers – image-based, SAR follow-up (AID 2357); type: functional
[10] = protection from phage-mediated lysis, alamar blue read-out – E. coli UTI89, K1F phage, bacterial capsule biogenesis inhibitors (AID 488966); type: functional
[11] = target: T4, Neuropeptide Y receptor type 1 (Homo sapiens, UniProt P25929); type: functional;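 further: HEK293 cells with a CNG channel challenged with NPY then isoproterenol; potency as antagonist that reverses NPY suppression of cAMP signal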
T4 sequence (P25929 whole entry): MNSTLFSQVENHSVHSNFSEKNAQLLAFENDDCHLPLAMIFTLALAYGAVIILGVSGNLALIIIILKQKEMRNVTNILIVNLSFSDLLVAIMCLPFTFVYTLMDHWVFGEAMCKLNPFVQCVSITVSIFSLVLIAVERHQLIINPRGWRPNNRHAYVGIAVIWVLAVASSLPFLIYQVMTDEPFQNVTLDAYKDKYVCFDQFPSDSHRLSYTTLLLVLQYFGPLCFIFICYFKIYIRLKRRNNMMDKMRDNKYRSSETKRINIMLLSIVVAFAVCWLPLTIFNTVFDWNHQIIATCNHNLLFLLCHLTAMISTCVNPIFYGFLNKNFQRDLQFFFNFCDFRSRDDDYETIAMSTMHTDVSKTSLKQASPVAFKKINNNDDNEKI

[12] = target: Luciferin 4-monooxygenase (Photinus pyralis, UniProt P08659); assay: inhibition of purified Photinus pyralis luciferase – biochemical, luminescence, dose response (AID 1891)
[13] = Luminescence Cell-Based Dose Confirmation HTS to Identify Inhibitors of Platelet Dense Granule Release. [Related pubchem assays: 1663 (Primary HTS), 1678 (Summary of Project)]; type: functional
[14] = target: T5, Neuropeptide Y receptor type 2 (Homo sapiens, UniProt P49146); type: functional, cell-based;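 further: HEK293 cells expressing the receptor and a CNG channel; stimulus was NPY near EC95 followed by isoproterenol to raise cAMP; antagonist potency measured as restoring cAMP signal that NPY suppresses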
T5 sequence (P49146 whole entry): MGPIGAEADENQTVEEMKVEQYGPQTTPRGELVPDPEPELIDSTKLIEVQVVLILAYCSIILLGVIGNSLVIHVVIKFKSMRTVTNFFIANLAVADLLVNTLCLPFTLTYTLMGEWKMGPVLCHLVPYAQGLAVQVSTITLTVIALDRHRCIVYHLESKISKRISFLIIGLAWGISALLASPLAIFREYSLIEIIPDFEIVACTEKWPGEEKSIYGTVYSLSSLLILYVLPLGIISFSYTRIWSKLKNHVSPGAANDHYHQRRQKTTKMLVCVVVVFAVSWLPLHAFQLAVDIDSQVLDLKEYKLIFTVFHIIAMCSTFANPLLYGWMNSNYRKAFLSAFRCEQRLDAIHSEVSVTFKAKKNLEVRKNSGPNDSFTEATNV

Saccharomyces cerevisiae = assay: S. cerevisiae Caspase-1/ASC signal blockers IC50, NALP1 inhibitor project selectivity test (AID 488863); type: functional, organism-based
[15] = target: NACHT, LRR and PYD domains-containing protein 1 (Homo sapiens, UniProt Q9C000); assay: NALP1 inhibitors in yeast, dose response, luminescent (AID 488860); type: functional
[16] = target: Intestinal-type alkaline phosphatase (Homo sapiens, UniProt P09923); assay: Dose Response confirmation of uHTS hits from a small molecule inhibitors of human intestinal alkaline phosphatase via a luminescent assay. [Related pubchem assays (depositor defined):AID2544, AID2574]; type: functional
[17] = target: T6, Corticotropin-releasing factor receptor 2/Corticotropin-releasing factor-binding protein (Homo sapiens, UniProt P24387+Q13324); assay: Dose Response confirmation of uHTS hits for small molecule antagonists of the CRF-binding protein and CRF-R2 receptor complex.; type: functional; conditions: read-out: IC50_Mean
T6 sequence (Q13324 whole entry): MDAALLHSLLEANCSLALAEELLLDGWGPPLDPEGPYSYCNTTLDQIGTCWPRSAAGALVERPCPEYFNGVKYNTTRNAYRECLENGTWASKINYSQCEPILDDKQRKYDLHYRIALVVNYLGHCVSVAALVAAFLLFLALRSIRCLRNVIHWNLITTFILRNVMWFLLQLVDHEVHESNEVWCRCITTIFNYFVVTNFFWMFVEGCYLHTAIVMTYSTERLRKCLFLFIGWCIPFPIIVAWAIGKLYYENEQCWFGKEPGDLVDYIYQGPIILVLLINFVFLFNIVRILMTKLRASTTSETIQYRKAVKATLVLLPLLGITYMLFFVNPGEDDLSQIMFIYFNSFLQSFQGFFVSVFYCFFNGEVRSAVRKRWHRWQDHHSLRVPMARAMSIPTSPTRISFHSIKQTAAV
T6 sequence (P24387 whole entry): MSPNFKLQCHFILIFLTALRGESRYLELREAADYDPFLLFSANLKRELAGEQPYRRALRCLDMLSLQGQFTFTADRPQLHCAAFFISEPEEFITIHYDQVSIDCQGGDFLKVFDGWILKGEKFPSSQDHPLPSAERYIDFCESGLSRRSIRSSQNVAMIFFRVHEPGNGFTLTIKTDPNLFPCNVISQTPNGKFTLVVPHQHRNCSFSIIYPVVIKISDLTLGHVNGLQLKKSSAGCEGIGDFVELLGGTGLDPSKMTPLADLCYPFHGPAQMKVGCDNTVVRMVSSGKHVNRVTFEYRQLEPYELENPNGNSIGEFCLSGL

[18] = target: T6, Corticotropin-releasing factor receptor 2/Corticotropin-releasing factor-binding protein; assay: activators of CRF receptor 2 with binding protein – uHTS hits, confirmation (AID 602473); type: functional; conditions: read-out: EC50_Mean
[19] = BJeHLT cell viability loss – BJeHLT cells, dry powder, counter-screen for Ras selective lethality project, dose response (AID 493052); type: functional, cell-based; conditions: Homo sapiens
[20] = DRD BJ cell killing, Ras synthetic lethality – DRD BJ fibroblasts, HRASV12, dry powder, dose response (AID 493049); type: functional, cell-based
[21] = HRAS-V12 fibroblast viability reduction – cell-based, Alamar Blue, dry powder, Ras selective lethality project, primary screen (AID 493045); type: functional; conditions: BJeLR
[22] = BJeH cell viability loss – BJeH cells, dry powder, counter-screen for Ras selective lethality project, dose response (AID 493054); type: functional, cell-based
[23] = target: G-protein coupled receptor 35 (Homo sapiens, UniProt Q9HC97); assay: inhibition of zaprinast-stimulated GPR35 beta-arrestin translocation – imaging, U2OS, beta-arrestin-GFP, zaprinast agonist, primary screen (AID 2058); type: functional;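 further: antagonist potency meaning inhibition of agonist-induced arrestin redistribution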
[24] = target: T7, Replicative DNA helicase DnaB (Mycobacterium tuberculosis, UniProt P9WMR3); assay: DnaB intein splicing inhibitors, dose response, biochemical, cell-free fluorescence (AID 449749); type: functional
T7 sequence (P9WMR3 whole entry): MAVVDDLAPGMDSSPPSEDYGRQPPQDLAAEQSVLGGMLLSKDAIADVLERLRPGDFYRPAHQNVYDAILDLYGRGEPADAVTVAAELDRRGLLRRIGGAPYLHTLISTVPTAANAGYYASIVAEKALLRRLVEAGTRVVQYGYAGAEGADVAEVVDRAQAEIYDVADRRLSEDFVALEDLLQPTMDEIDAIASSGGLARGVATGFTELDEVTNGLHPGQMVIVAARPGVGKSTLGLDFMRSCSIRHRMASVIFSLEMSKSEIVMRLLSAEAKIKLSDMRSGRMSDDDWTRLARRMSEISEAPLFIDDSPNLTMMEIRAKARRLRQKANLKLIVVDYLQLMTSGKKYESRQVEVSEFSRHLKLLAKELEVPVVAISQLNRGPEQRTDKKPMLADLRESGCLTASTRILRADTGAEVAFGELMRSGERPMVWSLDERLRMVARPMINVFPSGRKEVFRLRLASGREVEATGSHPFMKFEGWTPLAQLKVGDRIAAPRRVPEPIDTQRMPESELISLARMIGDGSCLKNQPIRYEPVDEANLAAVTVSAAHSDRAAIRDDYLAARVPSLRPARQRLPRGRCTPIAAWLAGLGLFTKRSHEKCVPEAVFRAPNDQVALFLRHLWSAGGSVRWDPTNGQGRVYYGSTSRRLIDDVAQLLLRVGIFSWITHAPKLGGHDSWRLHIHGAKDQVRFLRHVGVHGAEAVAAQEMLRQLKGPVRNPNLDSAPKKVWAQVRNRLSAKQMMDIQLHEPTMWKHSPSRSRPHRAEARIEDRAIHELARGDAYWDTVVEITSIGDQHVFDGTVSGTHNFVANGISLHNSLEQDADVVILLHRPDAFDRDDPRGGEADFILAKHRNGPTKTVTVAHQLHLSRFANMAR

Protein RecA = target: T8, Protein RecA (Mycobacterium tuberculosis, UniProt P9WHJ3); assay: Fluorescence Cell-Free Homogeneous Dose Retest to Identify Inhibitors of RecA-Intein Splicing Activity. [Related pubchem assays (depositor defined):AID2097, AID2223, AID489010, AID492950]; type: functional
T8 sequence (P9WHJ3 whole entry): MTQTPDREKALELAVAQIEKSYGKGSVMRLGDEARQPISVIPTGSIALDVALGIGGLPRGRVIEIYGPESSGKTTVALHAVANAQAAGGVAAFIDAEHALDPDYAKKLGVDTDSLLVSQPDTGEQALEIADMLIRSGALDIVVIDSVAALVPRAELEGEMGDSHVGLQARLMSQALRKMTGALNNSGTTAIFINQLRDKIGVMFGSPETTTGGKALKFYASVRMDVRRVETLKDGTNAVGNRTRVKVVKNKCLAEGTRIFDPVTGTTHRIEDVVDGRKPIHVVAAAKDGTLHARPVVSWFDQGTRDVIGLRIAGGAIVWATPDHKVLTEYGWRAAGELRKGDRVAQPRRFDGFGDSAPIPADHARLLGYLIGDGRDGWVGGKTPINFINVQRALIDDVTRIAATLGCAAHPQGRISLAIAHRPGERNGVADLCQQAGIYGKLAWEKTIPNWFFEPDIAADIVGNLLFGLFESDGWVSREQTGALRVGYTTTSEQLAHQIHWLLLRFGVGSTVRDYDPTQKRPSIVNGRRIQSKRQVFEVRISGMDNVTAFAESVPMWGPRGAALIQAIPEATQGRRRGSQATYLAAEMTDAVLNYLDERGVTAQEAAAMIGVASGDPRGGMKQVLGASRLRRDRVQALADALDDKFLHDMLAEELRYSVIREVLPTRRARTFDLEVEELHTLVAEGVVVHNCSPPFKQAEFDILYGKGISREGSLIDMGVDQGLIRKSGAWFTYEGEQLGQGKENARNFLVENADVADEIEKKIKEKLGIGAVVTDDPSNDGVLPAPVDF

Large T antigen = Large T antigen (Simian virus 40, UniProt P03070); assay: A confirmatory biochemical assay using the ADP-Hunter methodology, purified TAg, and ATP to quantify activity of synthesized compounds that inhibit the ATPase activity of Tag (3). [Related pubchem assays (depositor defined):AID1903, AID1909, AID2102, AID2501, AID2615, AID2775, AID435001, AID449729]; parameters: species or system Betapolyomavirus macacae

T1 sequence (P41145 whole entry): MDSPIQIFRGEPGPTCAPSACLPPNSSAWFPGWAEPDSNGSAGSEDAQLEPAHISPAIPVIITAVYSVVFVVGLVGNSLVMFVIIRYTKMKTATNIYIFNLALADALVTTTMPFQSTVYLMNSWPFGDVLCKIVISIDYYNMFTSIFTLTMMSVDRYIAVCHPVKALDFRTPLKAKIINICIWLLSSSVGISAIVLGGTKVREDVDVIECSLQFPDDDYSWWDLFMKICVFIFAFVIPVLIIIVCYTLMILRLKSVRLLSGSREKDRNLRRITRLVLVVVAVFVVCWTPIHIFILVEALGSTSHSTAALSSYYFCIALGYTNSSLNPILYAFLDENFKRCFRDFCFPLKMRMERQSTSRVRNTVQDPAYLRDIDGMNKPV
T2 sequence (P35372 whole entry): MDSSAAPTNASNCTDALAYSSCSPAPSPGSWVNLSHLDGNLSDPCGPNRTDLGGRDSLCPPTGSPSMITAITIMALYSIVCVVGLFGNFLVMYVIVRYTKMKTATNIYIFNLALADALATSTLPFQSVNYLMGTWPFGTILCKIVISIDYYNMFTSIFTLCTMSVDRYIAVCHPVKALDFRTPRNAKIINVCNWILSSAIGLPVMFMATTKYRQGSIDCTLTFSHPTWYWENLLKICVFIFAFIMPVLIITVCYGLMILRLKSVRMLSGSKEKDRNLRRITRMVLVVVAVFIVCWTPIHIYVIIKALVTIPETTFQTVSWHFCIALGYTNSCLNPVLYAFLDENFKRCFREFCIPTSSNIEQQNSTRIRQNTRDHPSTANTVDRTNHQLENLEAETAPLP
T3 sequence (P41143 whole entry): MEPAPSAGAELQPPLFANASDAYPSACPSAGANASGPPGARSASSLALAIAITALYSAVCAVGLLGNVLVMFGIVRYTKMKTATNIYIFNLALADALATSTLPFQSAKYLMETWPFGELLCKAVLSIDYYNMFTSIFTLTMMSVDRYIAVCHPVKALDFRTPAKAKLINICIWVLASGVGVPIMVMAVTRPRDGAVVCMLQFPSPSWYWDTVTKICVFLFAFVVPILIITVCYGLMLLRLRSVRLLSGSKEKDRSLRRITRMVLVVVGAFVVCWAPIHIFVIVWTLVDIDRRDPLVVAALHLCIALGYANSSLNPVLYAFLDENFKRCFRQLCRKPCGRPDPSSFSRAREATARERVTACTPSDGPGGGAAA
Sequence of NACHT, LRR and PYD domains-containing protein 1 (Q9C000 1-1212 limits assumed): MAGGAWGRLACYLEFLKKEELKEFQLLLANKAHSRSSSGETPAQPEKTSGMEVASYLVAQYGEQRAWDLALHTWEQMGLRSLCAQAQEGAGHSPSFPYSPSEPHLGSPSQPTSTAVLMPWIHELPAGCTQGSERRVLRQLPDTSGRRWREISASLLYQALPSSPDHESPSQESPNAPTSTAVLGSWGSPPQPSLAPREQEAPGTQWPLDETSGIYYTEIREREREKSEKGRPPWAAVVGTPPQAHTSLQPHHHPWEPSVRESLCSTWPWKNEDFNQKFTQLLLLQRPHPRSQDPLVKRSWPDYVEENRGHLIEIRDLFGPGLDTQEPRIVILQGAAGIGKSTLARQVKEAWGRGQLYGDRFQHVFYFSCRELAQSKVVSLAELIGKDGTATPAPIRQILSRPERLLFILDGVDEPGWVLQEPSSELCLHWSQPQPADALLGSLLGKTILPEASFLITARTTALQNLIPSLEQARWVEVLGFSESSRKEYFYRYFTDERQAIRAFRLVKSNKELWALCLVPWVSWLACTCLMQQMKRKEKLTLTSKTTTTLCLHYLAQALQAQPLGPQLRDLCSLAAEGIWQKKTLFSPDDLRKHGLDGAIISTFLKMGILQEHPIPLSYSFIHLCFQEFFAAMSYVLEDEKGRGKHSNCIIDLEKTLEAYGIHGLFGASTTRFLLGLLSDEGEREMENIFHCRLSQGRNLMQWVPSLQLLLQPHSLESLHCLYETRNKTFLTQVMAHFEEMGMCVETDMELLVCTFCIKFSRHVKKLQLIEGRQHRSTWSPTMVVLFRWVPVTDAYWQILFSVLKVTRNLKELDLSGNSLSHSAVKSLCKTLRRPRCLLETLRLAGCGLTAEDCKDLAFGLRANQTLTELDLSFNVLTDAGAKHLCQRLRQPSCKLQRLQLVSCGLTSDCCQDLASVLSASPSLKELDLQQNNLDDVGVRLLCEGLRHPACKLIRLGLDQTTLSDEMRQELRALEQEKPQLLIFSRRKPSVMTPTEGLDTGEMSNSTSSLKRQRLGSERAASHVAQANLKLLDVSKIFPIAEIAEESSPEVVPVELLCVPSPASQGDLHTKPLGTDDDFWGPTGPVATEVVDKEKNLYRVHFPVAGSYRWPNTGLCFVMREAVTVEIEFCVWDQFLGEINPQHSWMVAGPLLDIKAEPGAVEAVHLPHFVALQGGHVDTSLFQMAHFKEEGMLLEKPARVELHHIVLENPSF
Sequence of NACHT, LRR and PYD domains-containing protein 1 (Q9C000 1213-1473 limits assumed): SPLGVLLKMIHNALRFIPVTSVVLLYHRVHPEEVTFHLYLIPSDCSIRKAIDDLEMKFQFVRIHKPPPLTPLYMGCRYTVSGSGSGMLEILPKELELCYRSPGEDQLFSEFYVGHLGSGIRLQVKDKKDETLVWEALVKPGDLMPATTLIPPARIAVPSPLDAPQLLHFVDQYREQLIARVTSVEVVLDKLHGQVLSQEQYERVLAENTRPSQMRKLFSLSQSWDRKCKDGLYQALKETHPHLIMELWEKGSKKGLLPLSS
Sequence of G-protein coupled receptor 35 (Q9HC97 whole entry): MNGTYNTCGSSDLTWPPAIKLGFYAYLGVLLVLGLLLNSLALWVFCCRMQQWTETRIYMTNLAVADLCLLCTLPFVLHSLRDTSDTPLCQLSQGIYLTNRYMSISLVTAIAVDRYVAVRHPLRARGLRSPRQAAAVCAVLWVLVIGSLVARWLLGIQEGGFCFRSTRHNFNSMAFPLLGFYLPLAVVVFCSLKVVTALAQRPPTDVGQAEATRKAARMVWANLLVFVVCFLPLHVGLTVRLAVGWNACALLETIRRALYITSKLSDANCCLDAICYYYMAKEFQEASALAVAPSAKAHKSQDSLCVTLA
Sequence of Polyadenylate-binding protein 1 (P11940 whole entry): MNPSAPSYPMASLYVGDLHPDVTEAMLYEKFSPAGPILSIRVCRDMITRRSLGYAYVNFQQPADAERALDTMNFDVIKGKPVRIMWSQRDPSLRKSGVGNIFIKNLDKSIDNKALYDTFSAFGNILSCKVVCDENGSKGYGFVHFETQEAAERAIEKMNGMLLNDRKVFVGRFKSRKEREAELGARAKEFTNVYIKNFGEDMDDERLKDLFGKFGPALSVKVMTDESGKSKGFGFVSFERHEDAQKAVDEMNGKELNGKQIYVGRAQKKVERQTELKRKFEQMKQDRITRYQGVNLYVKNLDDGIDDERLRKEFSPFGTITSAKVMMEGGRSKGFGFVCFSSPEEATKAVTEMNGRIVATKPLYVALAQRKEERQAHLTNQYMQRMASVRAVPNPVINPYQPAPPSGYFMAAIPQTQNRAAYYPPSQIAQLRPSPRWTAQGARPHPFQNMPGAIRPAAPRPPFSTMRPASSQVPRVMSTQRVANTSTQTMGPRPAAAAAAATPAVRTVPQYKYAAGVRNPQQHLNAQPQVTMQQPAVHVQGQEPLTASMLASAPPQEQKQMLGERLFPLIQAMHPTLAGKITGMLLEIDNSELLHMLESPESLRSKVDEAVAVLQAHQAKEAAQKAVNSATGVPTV
Sequence of Intestinal-type alkaline phosphatase (P09923 whole entry): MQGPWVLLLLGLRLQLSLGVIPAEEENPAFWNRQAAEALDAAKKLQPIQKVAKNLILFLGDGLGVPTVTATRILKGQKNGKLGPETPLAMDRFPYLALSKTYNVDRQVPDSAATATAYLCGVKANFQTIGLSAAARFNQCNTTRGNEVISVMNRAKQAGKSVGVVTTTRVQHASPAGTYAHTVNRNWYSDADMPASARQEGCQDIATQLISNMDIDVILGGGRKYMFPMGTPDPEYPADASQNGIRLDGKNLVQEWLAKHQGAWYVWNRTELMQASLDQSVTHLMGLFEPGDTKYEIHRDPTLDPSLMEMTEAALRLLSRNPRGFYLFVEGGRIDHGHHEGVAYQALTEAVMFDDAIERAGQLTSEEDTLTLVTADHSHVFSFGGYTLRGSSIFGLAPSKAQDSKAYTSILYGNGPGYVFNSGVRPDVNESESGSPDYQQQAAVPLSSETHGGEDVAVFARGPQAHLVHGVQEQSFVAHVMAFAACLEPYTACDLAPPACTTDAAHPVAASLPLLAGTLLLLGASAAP
Sequence of Luciferin 4-monooxygenase (P08659 whole entry): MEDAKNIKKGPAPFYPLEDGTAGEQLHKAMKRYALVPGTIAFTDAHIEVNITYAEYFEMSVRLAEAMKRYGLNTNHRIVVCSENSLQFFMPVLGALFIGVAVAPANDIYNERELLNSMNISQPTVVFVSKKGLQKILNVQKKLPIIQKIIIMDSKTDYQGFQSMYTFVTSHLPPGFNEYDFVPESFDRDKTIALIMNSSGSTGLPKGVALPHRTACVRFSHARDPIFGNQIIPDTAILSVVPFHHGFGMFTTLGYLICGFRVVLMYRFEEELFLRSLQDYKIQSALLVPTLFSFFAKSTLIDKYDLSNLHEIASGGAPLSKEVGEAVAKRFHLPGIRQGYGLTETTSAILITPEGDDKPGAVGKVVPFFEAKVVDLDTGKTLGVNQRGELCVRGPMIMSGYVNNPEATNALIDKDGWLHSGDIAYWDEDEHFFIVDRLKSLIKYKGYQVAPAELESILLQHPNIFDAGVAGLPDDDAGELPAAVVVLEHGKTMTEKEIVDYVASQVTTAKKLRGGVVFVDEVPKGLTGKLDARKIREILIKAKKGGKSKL

## COc1ccccc1N=C1SC(C(=O)Nc2ccc(F)cc2)CC(=O)N1C (configuration not stated)
[1]
  IC50: > 100 µM (inactive)
[2]
  IC50: > 100 µM (inactive)

## CC(C)(C)c1ccc(CSc2nnc(-c3ccccn3)n2Cc2ccco2)cc1
[3]
  EC50: 1.02 µM
[4]
  EC50: 2.18 µM
Mu-type opioid receptor [5]
  EC50: > 32 µM (inactive)
[6]
  EC50: > 32 µM (inactive)
[7]
  IC50: > 32 µM (inactive)
Mu-type opioid receptor [8]
  IC50: > 32 µM (inactive)
[9]
  IC50: > 32 µM (inactive)

## CC/C(=C(/c1ccccc1)c1ccc(OCC[N+](C)(C)C)cc1)c1ccccc1
[10]
  IC50: > 150 µM (active)

## COc1cc(/C=N/n2cnnc2)ccc1OCc1ccc(C)cc1
[11]
  IC50: 7.08 µM (active)
[12]
  EC50: > 112 µM (not active)
[13]
  EC50: 20.8 µM (active)
[14]
  IC50: 4.18 µM (active)
Saccharomyces cerevisiae
  IC50: > 100 µM (inactive)
[15]
  IC50: > 100 µM (inactive)

## Cc1ccccc1CNC(=O)c1ccccc1N
[16]
  IC50: > 100 µM (inactive)
[17]
  IC50: > 47.1 µM (inactive)
[18]
  EC50: > 53 µM (inactive)

## COc1ccc(N(C(=O)CCl)C(C(=O)NCc2ccccc2)c2cccs2)cc1Cl (configuration not stated)
[19]
  AC50: 0.179 µM (active)
[20]
  AC50: 0.098 µM (active)
[21]
  AC50: 0.075 µM (active)
[22]
  AC50: 0.336 µM (active)

## CC1(CC(=O)N/N=C/c2ccc(OCc3ccc(Cl)cc3Cl)cc2)OCCCO1
[23]
  IC50: < 0.5 µM (active)
[24]
  AC50: 3.09 µM (active)
Protein RecA
  EC50: 11.1 µM (active)

## Oc1ccc(Oc2ccc(O)cc2)cc1
Large T antigen
  IC50: 37.7 µM (active)
